Experimental data from patent publication US12070472B2, “Treatment of drug resistant proliferative diseases with telomerase mediated telomere altering compounds” (The Board of Regents of the University of Texas System, priority 2016, dated 2024).

What was measured:
[1] = system: BJ cells; assay: Telomere dysfunction induced foci (TIF) assay in normal BJ cells; assay type: cell-based, human; conditions: 10 μM, after 48 hours
Protocol: TIFs were quantified using Imaris software.
Normal BJ cells and […] BJ-hTERT cells were seeded in chamber slides. Following cell attachment, 6-thio-dG (10 μM) and 6-thio-G (10 μM) were added to fresh medium of each cell type. […] A control was used for each cell type as well, where DMSO was added to fresh medium of each cell type. […] These include almost all human cancer cells and certain human diseases involving acute and chronic inflammation.

[2] = system: BJ; assay: GI 50 determination, BJ; assay type: cell-based; conditions: Homo sapiens; BJ normal cell line
Protocol: (§1) Cells of each type listed in Table 2 were seeded in chamber slides.

[3] = system: HCC15; assay: GI 50 determination, HCC15; assay type: cell-based; conditions: Homo sapiens
Protocol: as §1

[4] = system: H2087; assay: GI 50 determination, H2087; assay type: cell-based; conditions: Homo sapiens, NCI-H2087
Protocol: as §1

[5] = system: BJ fibroblast cells; assay: Telomere length assay (TRF), BJ fibroblasts long-term culture; assay type: cell-based, human; conditions: 10 weeks, compared to untreated control
Protocol: For long-term cellular experiments, HCT116 (1,000 cells/cm^2) and BJ (10,000 cells/cm^2) cells were fed with 6-thio-dG (1, 3, 10 μM) containing medium every three days. The cells were counted and replated every week for 10-16 weeks. Additionally, HCT116 cells (1,000 cells/cm^2) were fed with 6-thio-G (1, 3, 10 μM) every three days and each week cells were counted, collected for TRF (Telomere Restriction Fragment) analysis and replated. HCT116 cells, following treatment with 10 μM 6-thio-dG for 12 weeks, were then treated with a combination of 10 μM 6-thio-dG and 3 μM GRN163L for 2-4 weeks.

[6] = system: HCT116 cells
Protocol: Following the treatment cells were seeded at different densities and the cultured for 10 days.

[7] = system: HCT116 cells; assay: Tumor growth in xenograft animal model with HCT116 cells; assay type: in vivo, mice; conditions: 2 mg/kg IP every two days, 6 injections
Protocol: Doses of 2 mg/kg of 6-thio-dG and 2 mg/kg of 6-thio-G were IP injected every two days for a total of 6 injections into mice. DMSO injections were used for the control. The volume of the tumor was measured.

[8] = Toxicity testing in rats; conditions: for mortality: rats
Protocol: Six rats were treated with 15 mg of 6-thio-dG/kg of body weight every two days. […] Another 5 rats were treated with 50 mg of 6-thio-dG/kg of body weight every other day.

[9] = system: HCEC1 normal colonic cell line; assay: CellTitreGlo survival, 7 days, HCEC1; assay type: cell-based; conditions: Homo sapiens, 168 h
Protocol: (§2) Four different cell lines were treated with nine different doses of 6-thio-dG for 7 days. HCT116 colon cancer cell line (FIG. 9A), HCEC1 normal colonic cell line (FIG. 9C), A549 non-small cell lung cancer cell line (FIG. 9B), and BJ normal fibroblast cell line (FIG. 9D) were each treated. Survival fraction was measured by CellTitreGlo luminescent cell viability assay (Promega).

[10] = system: BJ normal fibroblast cell line; assay: CellTitreGlo survival, 7 days, BJ; assay type: cell-based; conditions: Homo sapiens, 168 h
Protocol: as §2

[11] = system: H1693; assay: NSCLC panel sensitivity to 6-thio-dG, H1693; assay type: cell-based, human
Protocol: (§3) A panel of NSCLC cell lines was tested for sensitivity to 6-thio-dG by performing a cell count after 1 week treatment. Briefly, cells were treated with 3 μM 6-thio-dG every three days for 1 week. Viable cells were counted at the end of treatment. Each 6-thiodG treated cell line was normalized to its DMSO treated control.
(§4) Two isogenic pairs of NSCLC cell lines were studied for sensitization to 6-thio-dG treatment.

[12] = system: H2085; assay: NSCLC panel sensitivity to 6-thio-dG, H2085; assay type: cell-based; conditions: Homo sapiens
Protocol: as §3, with “control. The results of the cell count are depicted in FIG. 12, with the various cell lines arranged in descending resistance to 6-thio-dG from left to right. […] The IC50 values for the whole panel of tested cells are depicted in FIG. 13. The IC50 values for tested cells are depicted as a column scatter graph in FIG. 14.” for “control.”

[13] = system: H324; assay: NSCLC panel sensitivity to 6-thio-dG, H324; assay type: cell-based; conditions: Homo sapiens
Protocol: as §3, with “control. The results of the cell count are depicted in FIG. 12, with the various cell lines arranged in descending resistance to 6-thio-dG from left to right. […] The IC50 values for the whole panel of tested cells are depicted in FIG. 13. The IC50 values for tested cells are depicted as a column scatter graph in FIG. 14.” for “control.”

[14] = system: H2073; assay: NSCLC panel sensitivity to 6-thio-dG, H2073; assay type: cell-based; conditions: Homo sapiens, NCI-H2073
Source text: as §4

[15] = system: paclitaxel/carboplatin resistant H1299; assay: 6-thio-dG on paclitaxel/carboplatin resistant H1299, cell count; assay type: cell-based, human; conditions: 1, 3, 10 μM every three days for one week
Protocol: A cell count was performed to measure cell growth/death.

[16] = system: HCT116 sub clones; assay: 6-thio-dG on HCT116 sub clone cell lines, cell count; assay type: cell-based, human; conditions: for sensitivity (cell count): 3 μM for 4 weeks
Protocol: In a separate experiment, 31 sub clone cell lines were derived from HCT116 cells that had no prior treatment with 6-thio-dG. […] At the end of one week, a cell count was performed of treated cells and cell percentage calculated relative to control cell count (FIG. 22). […] Four of the sub clone cell lines were further studied for resistance to 6-thio-dG. […] HCT116 Control group represent the main population treated with DMSO:water for 1-4 weeks. At the end of 4 weeks a cell count was performed to quantify cell growth. […] (FIG. 23)

[17] = system: H1693; assay: 6-thio-dG on H1693 parental and paclitaxel/carboplatin resistant lines; assay type: cell-based, human; conditions: 1, 3, 10 μM
Protocol: The resulting resistant lines and their parents were tested for the effect of 6-thio-dG at 1, 3, and 10 μM concentrations.

[18] = system: HCT116 cells; conditions: 3 μM
Protocol: The TIF assay is based on the co-localization detection of DNA damage by an antibody against DNA damage markers such as gamma-H2AX and telomeres by the telomeric protein TRF2. Briefly, HCT116 cells were plated in 4-well chamber slides and after the cells attached to the surface, either 3 μM 6-thio-dG or 3 μM 6-thio-G was added to the medium at different time points (0, 30 min, 12 h, 24 h, 48 h, 72 h). Slides were rinsed once with PBS and fixed in 4% paraformaldehyde in PBS for 10 min. Then, cells were washed twice with PBS and permeabilized in 0.5% Nonidet-P40 in PBS, blocked with 0.5% Bovine Serum Albumin (BSA) and 0.2% fish gelatin in PBS for 30 min. gamma-H2AX (mouse) (Millipore, Billerica, MA) was diluted 1:1000 and TRF2 (rabbit) (Abcam, Cambridge, MA) was diluted 1:200 in blocking solution and this primary Ab mixture was incubated on cells for 2 h. After three washes with PBST (1×PBS in 0.1% Triton) and 3 washes with PBS, cells were incubated with Alexaflour 488 conjugated goat anti rabbit (1:500) (Invitrogen, Grand Island, NY) and Alexaflour 568 conjugated goat anti mouse (1:500) (Invitrogen) for 40 min, then washed six times with PBS. After drying, the slides were mounted with Vectashield mounting medium with DAPI (Vector Laboratories, Burlingame, CA). […] TIFs were quantified using Imaris software. […]

For Nc1nc2c(ncn2[C@H]2C[C@H](O)[C@@H](CO)O2)c(=S)[nH]1 [6-thio-dG, 6-thio-2′-deoxyguanosine], the “>4 TIFs per nucleus background subtracted” value [1] was 2, the GI50 [2] was over 100000 nM and the GI50 [3] was 800 nM. For the same compound, the GI50 [4] was 900 nM, the “telomere shortening (TRF)” value [5] was “did not show enhanced telomere shortening” and the survival fraction ([6]; 3 μM, after 72 hours irradiated, cultured 10 days) was “lower than cells treated with 6-thio-G”. For the same compound, the cell viability ([6]; cell titer glow luminescent assay) was “lower than cells treated with 6-thio-G”, the “rate of tumor growth (tumor volume)” value [7] was “rate of tumor growth was less” and the “signs of impaired function in surviving animals” value ([8]; rat, in vivo, 15 mg/kg) was “no signs of impaired function”. For the same compound, the mortality ([8]; 15 mg/kg every two days, six rats) was “One rat died after 6 injections”, the mortality ([8]; 50 mg/kg every other day, 5 rats) was “All rats died after 12 days” and the IC50 [9] was over 100000 nM. For the same compound, the IC50 [10] was over 100000 nM, the survival rate ([11]; H1693, 3 μM every three days for 1 week, normalized to DMSO control) was “greater than 50%” and the IC50 ([11]; Homo sapiens, NCI-H1693) was over 100000 nM. For the same compound, the IC50 [12] was 3000 to 7000 nM, the IC50 [13] was 2200 nM and the IC50 [14] was over 700 nM. The “sensitivity (cell count)” value [15] was “sensitive to all three concentrations”, the “sensitivity (cell count)” value ([16]; HCT116 clone #5) was “remained sensitive for the duration of the experiment” and the “sensitivity (cell count relative to control)” value ([16]; HCT116 clone #8, 3 μM every three days for one week) was “became intrinsically resistant to 6-thio-dG treatment”. The “sensitivity (cell count)” value ([16]; HCT116 clone #8) was “maintained resistance for the duration of the treatment”, the “sensitivity (cell count)” value ([16]; HCT116 clone #15) was “remained sensitive for the duration of the experiment” and the “sensitivity (cell count)” value ([16]; HCT116 sub clone #31) was “acquired resistance and by week 4 showed cell growth indistinguishable from controls”. The sensitivity [17] was “resistant to 6-thio-dG”, the “increase in telomeric DNA damage as compared to 6-thio-G” value ([18]; after 72 h) was 2.8 fold and the “genomic DNA damage” value ([18]; compared to 6-thio-G) was “overall increase in genomic DNA damage”.
